Data on five compounds can be found in ChEMBL document CHEMBL5370641, “Structure-Based Optimization and Biological Evaluation of Potent and Selective MMP-7 Inhibitors for Kidney Fibrosis” (J Med Chem, 2023).

Active and inactive are the calls of the source. The calls are words filed in the database; no cut-off is given here. Numbered stars: 1 amine (or outer) side, 2 acyl side, 3 side chain; on linkers, the order of the positions; unused ones are H or OH. Square brackets hold non-standard residues; d marks the D form. Peptide text beside a SMILES is read from it. * marks the point of attachment. Benzenesulfonyl(4-Cl,3-CF3) = O=S(=O)(c1ccc(Cl)c(C(F)(F)F)c1)*; γGlu = O=C(O)[C@H](CCC(=O)[*:2])N[*:1]; Phe(2-I) = N[C@@H](Cc1ccccc1I)C(=O)O; hPhe = N[C@@H](CCc1ccccc1)C(=O)O; 4Pal = N[C@@H](Cc1ccncc1)C(=O)O; Tle = CC(C)(C)[C@H](N)C(=O)O; β3hP = O=C(O)C[C@@H]1CCCN1

Data set [1] is described as follows: Volume of distribution at steady state in Sprague-Dawley rat at 1 mg/kg, iv administered as single dose by LC-MS/MS analysis. The class given is ADME, organism-based. The note with it: in vivo, read-out: Vdss.
Data set [2] deals with Neutrophil collagenase (Homo sapiens, UniProt P22894). Nature of the data set: Inhibition of recombinant human MMP8 using MOCAc-Pro-Leu-Gly-Leu-A2pr-(Dnp)-Ala-Arg-NH2 as substrate preincubated with compound for 15 mins followed by substrate addition and measured after 1 hrs by fluorescence based analysis.
Data set [3] can be described thus: Metabolic stability in human liver microsome assessed as intrinsic clearance at 1 uM incubated for 15 mins by LC-MS analysis. The class given is ADME. The note with it: liver microsomes, read-out: CLH (converted).
A short description of data set [4]: Metabolic stability in human serum assessed as parent compound remaining at 5 uM incubated for 4 hrs by LC-MS/MS analysis. The class given is ADME, cell-free. The note with it: read-out: Stability.
For data set [5], the target named is Matrix metalloproteinase-9 (Homo sapiens, UniProt P14780). In words: Inhibition of recombinant human MMP9 using MOCAc-Pro-Leu-Gly-Leu-A2pr-(Dnp)-Ala-Arg-NH2 as substrate preincubated with compound for 15 mins followed by substrate addition and measured after 1 hrs by fluorescence based analysis.
Data set [6] is filed under the species Homo sapiens. Nature of the data set: Selectivity ratio of IC50 for inhibition of recombinant human MMP3 to IC50 for inhibition of recombinant human MMP7.
The species entered for data set [7] is Homo sapiens. In words: Selectivity ratio of IC50 for inhibition of recombinant human MMP2 to IC50 for inhibition of recombinant human MMP7.
In data set [8] the target is 72 kDa type IV collagenase (Homo sapiens, UniProt P08253). Nature of the data set: Inhibition of recombinant human MMP2 using MOCAc-Pro-Leu-Gly-Leu-A2pr-(Dnp)-Ala-Arg-NH2 as substrate preincubated with compound for 15 mins followed by substrate addition and measured after 1 hrs by fluorescence based analysis.
Data set [9] concerns the target T1, Matrilysin (Mus musculus, UniProt Q10738).
T1 sequence (Q10738 whole entry): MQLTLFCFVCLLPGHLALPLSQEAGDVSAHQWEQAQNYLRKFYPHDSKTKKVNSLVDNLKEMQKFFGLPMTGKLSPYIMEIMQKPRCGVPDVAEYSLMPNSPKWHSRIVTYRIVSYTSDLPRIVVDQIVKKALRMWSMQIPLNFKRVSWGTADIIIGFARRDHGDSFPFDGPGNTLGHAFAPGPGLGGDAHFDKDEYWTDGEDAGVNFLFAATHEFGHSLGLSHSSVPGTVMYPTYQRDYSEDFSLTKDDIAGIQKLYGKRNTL
Nature of the data set: Inhibition of mouse MMP7 using MOCAc-Pro-Leu-Gly-Leu-A2pr-(Dnp)-Ala-Arg-NH2 as substrate preincubated with compound for 15 mins followed by substrate addition and measured after 2 hrs by fluorescence based analysis.

Data set [10] can be described thus: Protein binding in human serum incubated for 4 hrs by equilibrium dialysis based LC-MS/MS analysis. Type of data set: ADME, cell-free. The note with it: read-out: PB (converted).
Data set [11] in a line: Protein binding in mouse serum incubated for 4 hrs by equilibrium dialysis based LC-MS/MS analysis. The note with it: read-out: PB (converted). The class given is ADME, cell-free.
The nature of data set [12]: Total clearance in Sprague-Dawley rat at 1 mg/kg, iv administered as single dose by LC-MS/MS analysis. Type of data set: ADME, organism-based. The note with it: in vivo.
In data set [13] the target is T2, Interstitial collagenase (Homo sapiens, UniProt P03956).
T2 sequence (P03956 whole entry): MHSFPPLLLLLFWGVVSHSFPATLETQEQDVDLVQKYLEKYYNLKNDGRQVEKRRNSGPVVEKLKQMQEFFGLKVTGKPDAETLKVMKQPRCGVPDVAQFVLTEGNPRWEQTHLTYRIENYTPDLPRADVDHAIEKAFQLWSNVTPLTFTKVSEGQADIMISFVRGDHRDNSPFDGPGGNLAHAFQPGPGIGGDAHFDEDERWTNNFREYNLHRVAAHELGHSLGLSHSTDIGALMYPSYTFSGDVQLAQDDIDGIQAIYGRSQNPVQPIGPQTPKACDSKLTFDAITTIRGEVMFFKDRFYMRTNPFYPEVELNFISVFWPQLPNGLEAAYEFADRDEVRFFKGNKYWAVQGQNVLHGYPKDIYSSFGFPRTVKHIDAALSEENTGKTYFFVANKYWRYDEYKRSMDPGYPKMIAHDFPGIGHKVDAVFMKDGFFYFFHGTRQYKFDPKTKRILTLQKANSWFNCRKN
In words: Inhibition of recombinant human MMP1 using MOCAc-Lys-Pro-Leu-Gly-Leu-A2pr(Dnp)-Ala-Arg-NH2 as substrate preincubated with compound for 15 mins followed by substrate addition and measured after 1 hrs by fluorescence based analysis.

Data set [14] can be described thus: Metabolic stability in rat liver microsome assessed as intrinsic clearance at 1 uM incubated for 15 mins by LC-MS analysis. The note with it: liver microsomes, read-out: CLH (converted). The class given is ADME.
Data set [15] has as its target T3, Matrilysin (Homo sapiens, UniProt P09237).
T3 sequence (P09237 whole entry): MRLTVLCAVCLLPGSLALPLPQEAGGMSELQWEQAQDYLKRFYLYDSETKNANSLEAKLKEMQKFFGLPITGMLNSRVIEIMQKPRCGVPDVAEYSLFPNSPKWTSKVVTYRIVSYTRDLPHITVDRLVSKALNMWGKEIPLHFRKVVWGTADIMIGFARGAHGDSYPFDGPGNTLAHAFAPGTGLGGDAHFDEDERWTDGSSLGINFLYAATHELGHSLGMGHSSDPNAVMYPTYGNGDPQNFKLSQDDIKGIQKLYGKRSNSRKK
Nature of the data set: Inhibition of recombinant human MMP7 using MOCAc-Pro-Leu-Gly-Leu-A2pr-(Dnp)-Ala-Arg-NH2 as substrate preincubated with compound for 15 mins followed by substrate addition and measured after 2 hrs by fluorescence based analysis.

Data set [16] is described as follows: Metabolic stability in rat hepatocytes assessed as intrinsic clearance at 1 uM incubated for 1 to 4 hrs by LC-MS/MS analysis. Type of data set: ADME, cell-based, Hepatocyte. The note with it: time 1-4 hrs, read-out: CLH (converted).
In data set [17] the test system is Mus musculus. In words: Antifibrotic activity against unilateral ureteric obstruction induced C57BL/6J mouse model of renal fibrosis assessed as reduction in renal collagen at 10 to 100 mg/kg/day, SC preadministered with compound for 7 days followed by UUO surgery and measured after 7 days. The class given is functional, organism-based. The note with it: dose 10-100 mg/kg/day, time 14.0 day.

The species entered for data set [18] is Homo sapiens. Nature of the data set: Selectivity ratio of IC50 for inhibition of recombinant human MMP8 to IC50 for inhibition of recombinant human MMP7.
The species named for data set [19] is Homo sapiens. Nature of the data set: Selectivity ratio of IC50 for inhibition of recombinant human MMP12 to IC50 for inhibition of recombinant human MMP7.
The target of data set [20] is Matrix metalloproteinase-14 (Homo sapiens, UniProt P50281). Nature of the data set: Inhibition of recombinant human MMP14 using MOCAc-Lys-Pro-Leu-Gly-Leu-A2pr(Dnp)-Ala-Arg-NH2 as substrate preincubated with compound for 15 mins followed by substrate addition and measured after 1 hrs by fluorescence based analysis.
Data set [21] is filed under the species Homo sapiens. In words: Selectivity ratio of IC50 for inhibition of recombinant human MMP13 to IC50 for inhibition of recombinant human MMP7.
Data set [22] is filed under the species Homo sapiens. Nature of the data set: Selectivity ratio of IC50 for inhibition of recombinant human MMP14 to IC50 for inhibition of recombinant human MMP7.
The target in data set [23] is Collagenase 3 (Homo sapiens, UniProt P45452). Nature of the data set: Inhibition of recombinant human MMP13 using MOCAc-Pro-Leu-Gly-Leu-A2pr-(Dnp)-Ala-Arg-NH2 as substrate preincubated with compound for 15 mins followed by substrate addition and measured after 1 hrs by fluorescence based analysis.
For data set [24], the species on record is Homo sapiens. Nature of the data set: Selectivity ratio of IC50 for inhibition of recombinant human MMP1 to IC50 for inhibition of recombinant human MMP7.
Data set [25] in a line: Lipophilicity, logD of compound at pH 7.4 by HPLC-UV analysis. Type of data set: physicochemical. The note with it: buffer.
Data set [26] deals with Macrophage metalloelastase (Homo sapiens, UniProt P39900). Nature of the data set: Inhibition of recombinant human MMP12 using MOCAc-Pro-Leu-Gly-Leu-A2pr-(Dnp)-Ala-Arg-NH2 as substrate preincubated with compound for 15 mins followed by substrate addition and measured after 1 hrs by fluorescence based analysis.
In data set [27] the target is Stromelysin-1 (Homo sapiens, UniProt P08254). Nature of the data set: Inhibition of recombinant human MMP3 using MOCAc-Arg-Pro-Lys-Pro-Val-Glu-Nva-Trp-Arg-Lys(Dnp)-NH2 as substrate preincubated with compound for 15 mins followed by substrate addition and measured after 1 hrs by fluorescence based analysis.
The species named for data set [28] is Homo sapiens. In words: Selectivity ratio of IC50 for inhibition of recombinant human MMP9 to IC50 for inhibition of recombinant human MMP7.
Data set [29] deals with Mus musculus. In words: Antifibrotic activity against unilateral ureteric obstruction induced C57BL/6J mouse model of renal fibrosis assessed as reduction in renal collagen at 0.1 mg/ml preadministered with compound via drinking water for 7 days followed by UUO surgery and measured after 7 days. The class given is functional, organism-based. The note with it: route po, time 14.0 day.

Sequence of Stromelysin-1 (P08254 whole entry): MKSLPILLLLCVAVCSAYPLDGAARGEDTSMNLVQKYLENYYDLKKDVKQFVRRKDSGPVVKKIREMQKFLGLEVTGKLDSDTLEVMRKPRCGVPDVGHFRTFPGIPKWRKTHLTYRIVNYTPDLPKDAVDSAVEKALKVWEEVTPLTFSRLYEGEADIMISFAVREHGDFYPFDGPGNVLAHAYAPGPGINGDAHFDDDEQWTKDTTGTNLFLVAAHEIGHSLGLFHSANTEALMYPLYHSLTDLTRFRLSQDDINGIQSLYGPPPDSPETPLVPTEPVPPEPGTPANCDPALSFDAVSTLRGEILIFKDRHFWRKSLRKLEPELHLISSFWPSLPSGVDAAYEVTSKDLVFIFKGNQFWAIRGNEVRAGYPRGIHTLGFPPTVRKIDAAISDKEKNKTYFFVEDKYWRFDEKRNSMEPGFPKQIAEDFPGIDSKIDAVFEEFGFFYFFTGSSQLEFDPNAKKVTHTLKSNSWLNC
Sequence of 72 kDa type IV collagenase (P08253 whole entry): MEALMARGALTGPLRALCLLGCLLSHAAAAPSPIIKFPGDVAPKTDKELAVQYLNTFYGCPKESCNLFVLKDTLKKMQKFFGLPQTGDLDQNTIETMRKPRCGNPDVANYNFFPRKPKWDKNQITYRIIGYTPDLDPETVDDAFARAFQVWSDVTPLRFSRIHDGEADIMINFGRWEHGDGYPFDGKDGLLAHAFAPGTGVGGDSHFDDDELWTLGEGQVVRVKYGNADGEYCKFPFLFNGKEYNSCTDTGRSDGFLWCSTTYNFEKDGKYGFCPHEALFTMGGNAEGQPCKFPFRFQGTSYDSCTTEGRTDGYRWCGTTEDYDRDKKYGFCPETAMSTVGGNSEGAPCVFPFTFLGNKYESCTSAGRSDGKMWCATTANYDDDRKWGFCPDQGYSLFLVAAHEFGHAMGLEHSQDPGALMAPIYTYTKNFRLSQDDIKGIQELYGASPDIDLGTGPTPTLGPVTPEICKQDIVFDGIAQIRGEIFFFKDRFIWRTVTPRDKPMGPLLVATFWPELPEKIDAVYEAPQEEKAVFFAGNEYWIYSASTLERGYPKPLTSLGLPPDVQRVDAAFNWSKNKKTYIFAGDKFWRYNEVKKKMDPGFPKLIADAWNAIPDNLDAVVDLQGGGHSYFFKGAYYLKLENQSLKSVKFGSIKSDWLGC
Sequence of Neutrophil collagenase (P22894 whole entry): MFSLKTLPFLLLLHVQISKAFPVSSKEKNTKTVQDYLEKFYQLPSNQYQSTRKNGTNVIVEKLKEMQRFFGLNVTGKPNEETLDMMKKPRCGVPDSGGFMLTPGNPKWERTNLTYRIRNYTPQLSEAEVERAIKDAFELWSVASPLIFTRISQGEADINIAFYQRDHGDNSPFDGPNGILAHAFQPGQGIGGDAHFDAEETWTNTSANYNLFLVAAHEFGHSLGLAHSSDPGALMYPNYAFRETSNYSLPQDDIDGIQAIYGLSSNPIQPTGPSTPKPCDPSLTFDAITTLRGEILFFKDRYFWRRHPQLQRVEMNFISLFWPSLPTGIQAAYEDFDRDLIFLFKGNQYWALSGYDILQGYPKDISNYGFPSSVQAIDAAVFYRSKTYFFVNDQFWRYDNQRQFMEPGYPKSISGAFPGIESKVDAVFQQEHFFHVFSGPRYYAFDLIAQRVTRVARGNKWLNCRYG
Sequence of Matrix metalloproteinase-9 (P14780 whole entry): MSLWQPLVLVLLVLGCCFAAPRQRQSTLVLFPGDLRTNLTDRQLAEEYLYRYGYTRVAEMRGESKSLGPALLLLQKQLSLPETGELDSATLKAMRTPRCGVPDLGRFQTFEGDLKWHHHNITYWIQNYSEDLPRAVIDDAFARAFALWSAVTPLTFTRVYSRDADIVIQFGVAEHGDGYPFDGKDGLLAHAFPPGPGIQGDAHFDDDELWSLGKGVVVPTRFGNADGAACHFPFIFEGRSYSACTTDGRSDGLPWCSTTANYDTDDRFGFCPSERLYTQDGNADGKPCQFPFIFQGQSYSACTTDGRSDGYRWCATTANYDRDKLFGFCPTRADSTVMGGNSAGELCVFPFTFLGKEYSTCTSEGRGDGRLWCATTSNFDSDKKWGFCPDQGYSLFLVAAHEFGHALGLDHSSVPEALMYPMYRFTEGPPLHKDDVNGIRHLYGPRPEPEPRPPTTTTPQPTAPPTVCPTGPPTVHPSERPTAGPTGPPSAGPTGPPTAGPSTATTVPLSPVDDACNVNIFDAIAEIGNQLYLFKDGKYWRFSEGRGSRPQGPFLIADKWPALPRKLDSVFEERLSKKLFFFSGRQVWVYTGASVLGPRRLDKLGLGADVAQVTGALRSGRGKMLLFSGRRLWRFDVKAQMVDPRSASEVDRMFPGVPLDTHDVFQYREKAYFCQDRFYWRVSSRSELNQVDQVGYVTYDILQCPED
Sequence of Macrophage metalloelastase (P39900 whole entry): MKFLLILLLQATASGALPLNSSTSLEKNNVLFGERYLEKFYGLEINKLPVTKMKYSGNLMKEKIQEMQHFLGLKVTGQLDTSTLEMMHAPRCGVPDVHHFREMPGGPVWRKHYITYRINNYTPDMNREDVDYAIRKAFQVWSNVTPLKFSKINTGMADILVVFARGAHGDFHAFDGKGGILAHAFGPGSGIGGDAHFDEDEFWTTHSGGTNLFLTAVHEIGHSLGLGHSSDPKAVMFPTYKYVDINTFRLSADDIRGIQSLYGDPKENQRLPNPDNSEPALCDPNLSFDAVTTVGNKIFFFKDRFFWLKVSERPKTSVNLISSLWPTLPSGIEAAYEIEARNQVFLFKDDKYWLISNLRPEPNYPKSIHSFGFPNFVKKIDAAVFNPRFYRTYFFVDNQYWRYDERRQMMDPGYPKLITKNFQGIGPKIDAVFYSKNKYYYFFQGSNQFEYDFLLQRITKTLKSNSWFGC

Turning to `CC(C)(C)[C@H](NC(=O)[C@H](Cc1ccncc1)NC(=O)CNC(=O)CC[C@H](NS(=O)(=O)c1ccc(Cl)c(C(F)(F)F)c1)C(=O)O)C(=O)N1CCC[C@H]1CC(N)=O` ({Benzenesulfonyl(4-Cl,3-CF3)-γGlu}-G[4Pal][Tle][β3hP]-NH2), the Vd in data set [1] was found to be 1.09 L/kg. Besides, the concentration for half-maximal inhibition (IC50) in [2] is greater than 100 µM; in [5], greater than 100 µM; in data set [8], 7.5 µM; in [9], 0.049 µM; in [13] it was greater than 100 µM; in data set [15], 0.0028 µM. The IC50 in data set [20] is 0.85 µM; in data set [23], greater than 100 µM; in data set [26], 1.3 µM; in data set [27], greater than 100 µM. Besides, the values for the CLint scaled at 1 µM in [3], in data set [14] and in data set [16] were 13.6 mL/min/kg, 23.6 mL/min/kg and 11 mL/min/kg, respectively. In addition, the remaining at 4 h, 5 µM in data set [4] was 101%. Besides, the Ratio IC50 in [6] was greater than 36000; in data set [7], 2700; in data set [18], greater than 36000; in [19] it was 460; in data set [21] it was greater than 36000; in [22], 300. The Ratio IC50 in data set [24] and in data set [28] was greater than 36000 throughout. Also, the fraction unbound at 4 h in data set [10] is 0.266; in [11], 0.368. Further, the clearance in data set [12] was 85.5 mL/min/kg. Also, the outcome in data set [17] was Active. The logD in data set [25] stood at 1.04.
Consider `CC(C)C[C@H](NC(=O)CNC(=O)CC[C@H](NS(=O)(=O)c1ccc(Cl)c(C(F)(F)F)c1)C(=O)O)C(=O)N[C@H](C(=O)N1CCC[C@H]1CC(N)=O)C(C)(C)C` ({Benzenesulfonyl(4-Cl,3-CF3)-γGlu}-GL[Tle][β3hP]-NH2), for which the IC50 in data set [2] is 55 µM; in data set [5] it was greater than 100 µM; in data set [8], 8.5 µM; in data set [13] it was 92 µM; in [15] it was 0.0077 µM; in [20] it was 0.24 µM. Besides, the results for the IC50 in [23], in [26] and in data set [27] were greater than 100 µM, 2.9 µM and greater than 100 µM, respectively. The Ratio IC50 in data set [6] is greater than 13000; in data set [7], 1100; in [18], 7100; in data set [19] it was 380; in [21] it was greater than 13000; in data set [22] it was 31. The Ratio IC50 in [24] is 12000; in data set [28] it was greater than 13000.
With `CC(C)(C)[C@H](NC(=O)[C@H](CCc1ccccc1)NC(=O)CNC(=O)CC[C@H](NS(=O)(=O)c1ccc(Cl)c(C(F)(F)F)c1)C(=O)O)C(=O)N1CCC[C@H]1CC(N)=O` ({Benzenesulfonyl(4-Cl,3-CF3)-γGlu}-G[hPhe][Tle][β3hP]-NH2), the figures for the 50% inhibitory concentration (IC50) in data set [15] and in [20] were 0.08 µM and 4.5 µM, respectively.
`CC(C)(C)[C@H](NC(=O)[C@H](Cc1ccccc1I)NC(=O)CNC(=O)CC[C@H](NS(=O)(=O)c1ccc(Cl)c(C(F)(F)F)c1)C(=O)O)C(=O)N1CCC[C@H]1CC(N)=O` ({Benzenesulfonyl(4-Cl,3-CF3)-γGlu}-G[Phe(2-I)][Tle][β3hP]-NH2): the IC50 in data set [15] is 0.0088 µM; in data set [20], 3.4 µM.
For the compound `CCCCc1nc(Cl)c(CO)n1Cc1ccc(-c2ccccc2-c2nnn[nH]2)cc1`, in data set [29], the outcome was Active.
